Results reported in US20160114044A1, “COMPOSITON BASED ON BIOCOMPATIBLE ANIONIC POLYMER FOR DRUG DELIVERY AND PREPARING METHOD THEREOF” (RESEARCH & BUSINESS FOUNDATION SUNGKYUNKWAN UNIVERSITY, priority 2014, published 2016).

Columns and labels:
[1] = Stability and size of micro-dispersions in distilled water; assay type: physicochemical; conditions: dispersed in water without γ-PGA
Description: The particle size of the redispersed solutions of γ-PGA/Ptx and γ-PGA/Imq was measured using Electrophoretic Light Scattering-ELS Z (Otsuka Electronics, Osaka, Japan). The stability of the dispersion was assessed by observing the samples for aggregation and phase separation after storing the sample at 4° C. for 1 week after dispersion in distilled water. The morphology of theses micro-dispersions were observed through FE-SEM (JSM-7000F, JEOL Ltd. Japan) and FE-TEM (JEM-2100F HR, JEOL Ltd. Japan). For the SEM sample preparation, the lyophilized and redispersed suspension was deposited on a silicon wafer plate and vacuum-dried to remove water, followed by platinum coating using a Technics Hummer II sputter coater at 30 mA for 90 s. For TEM sample preparation, a drop (2 μL) of redispersed suspension was placed onto a formvar/carbon coated copper grid, followed by vacuum-drying to evaporate water.
Distinct monodisperse peaks for γ-PGA/Imq and γ-PGA/Ptx/Imq were observed, indicating uniform size distribution (FIG. 3). In case of γ-PGA/Ptx, two peaks were observed, which might be due to a high aspect ratio of the paclitaxel crystal.

[2] = In-vitro viability assay (MTS); assay type: cell-based; conditions: mouse, bone marrow derived dendritic cells (BMDCs), after 48 h, normalized to untreated cells, read-out: cell viability / proliferation of BMDCs
Description: BMDCs were isolated from mouse bone marrow as reported previously. MTS assay for analysis of mitochondrial activity was used as a measure of cell viability. 1×10^4 cells in 100 μL media were seeded per well in a 96 well plate (Corning Costar, Cambridge, Mass., USA). 100 μl of sample dispersion was added to cell culture media and incubated for 24 h and 48 h at 37° C. and 5% CO2. After the incubation, 20 μL of MTS solution-Cell Titer 96 Aqueous One Solution kit (Promega, Madison, Wis., USA) was added to each well and incubated for 2 h. The absorbance of the samples was measured at 490 nm (VersaMax, Molecular Devices, Sunnyvale, Calif., USA) and normalized with respect to absorbance of untreated cells.

Row | Structure (SMILES) | dispersion state in water without γ-PGA [1] | viability at 48 h [2] [%]
1 | CC(=O)O[C@H]1C(=O)[C@@]2(C)[C@H]([C@H](OC(=O)c3ccccc3)[C@]3(O)C[C@H](OC(=O)[C@H](O)[C@@H](NC(=O)c4ccccc4)c4ccccc4)C(C)=C1C3(C)C)[C@]1(OC(C)=O)CO[C@@H]1C[C@@H]2O [paclitaxel] | aggregation and precipitation | 
2 | CC(C)Cn1cnc2c(N)nc3ccccc3c21 [imiquimod] | aggregation and precipitation | 250
